Source: US8889721B2, “Clothianidin, metofluthrin, and piperonyl butoxide mixture for bed bug control” (priority 2012, dated 2014)

Columns and labels:
Harlan-strain bed bugs = assay: Residual exposure to mixtures on wood panels, mortality/morbidity and knockdown (Example 7); format: in vivo, Cimex lectularius; conditions: for % Morbidity / % Mortality: Residual Efficacy at Day 30
Protocol: (§1) A bioassay was performed to determine the knockdown and mortality rates of bed bugs exposed to the residual of mixtures of clothianidin, metofluthrin, and PBO. Two bed bug (Cimex lectularius) strains were used; Harlan-strain which is susceptible to pyrethroids, and Winston Salem-strain which is known to have a 500-fold resistance level to deltamethrin. In this bioassay, a mixture of clothianidin, metofluthrin, and PBO with fumed silica was compared to combinations of clothianidin and metofluthrin, clothianidin and PBO, and clothianidin.
(§2) Unpainted wood was cut into 6 inch square panels and a DeVries spray booth was used to deliver 1 ml of test substance in an even spray that provided approximately 1 gal/1000 sq. ft. delivery rate. A cone jet nozzle was used approximately 12 inches directly above the wood panels. The panels were allowed to dry and then aged indoors in a climate controlled environment with temperatures ranging from approximately 65 to 72 degrees Fahrenheit. All tests were done in 4 replicates (40 total insects per treatment).
(§3) Insects were fed a blood meal the day prior to testing. The inner walls of Petri dishes were treated with Fluon to prevent the insects from attaching to the sides of the dishes during treatment.
(§4) On the day of testing, 10 insects were placed in each Petri dish. The bed bugs were separated with tweezers and observed to be healthy and active before treatments. The Petri dishes were inverted onto the treated surface and gentle tapping was sometimes used to dislodge the insects from the dishes. After 5 minutes, the insects were returned to containers for mortality/morbidity and knockdown observations.
(§5) Insects were considered moribund when they were knocked down and unable to right themselves when probed. Insects were considered dead when they had no body movement. Untreated controls were handled in the same manner except that they were exposed to water treated wood panels.
(§6) Insects were exposed to the wood panels on day 1 and day 30. Mortality and morbidity observations were taken until the untreated control mortality reached […] (day 7 following exposure).
(§7) The bed bugs were observed and recordings were taken at 10, 20, 30, 60 and 240 minutes following exposure to the wood panels. Table 4 provides the percentage of bed bugs from all 4 replicates (40 total insects per treatment) that were knocked down 10 and 240 minutes after exposure to the wood panels.

[1] = system: Winston Salem-strain bed bugs; assay: as above; format: in vivo, Cimex lectularius
Protocol: as §1, §2, §3, §4, §5, §6, §7

[2] = Residual Efficacy at Day 1, 1 day
[3] = Residual Efficacy at Day 1, 2 day
[4] = Residual Efficacy at Day 1, 3 day
[5] = Residual Efficacy at Day 30, 1 DAT
[6] = Residual Efficacy at Day 30, 2 DAT
[7] = Residual Efficacy at Day 30, 3 DAT
[8] = Residual Efficacy at Day 30, 4 DAT
[9] = Residual Efficacy at Day 30, 5 DAT
[10] = Residual Efficacy at Day 30, 6 DAT
[11] = Residual Efficacy at Day 30, 7 DAT

With `CN/C(=N\[N+](=O)[O-])NCc1cnc(Cl)s1` [0.4% Cloth.] the Knockdown (Harlan-strain bed bugs; Day 1 @ 10 minutes) was 48%, the Knockdown (Harlan-strain bed bugs; Day 1 @ 240 minutes) was 95% and the Knockdown (Harlan-strain bed bugs; Day 30 @ 10 minutes) was 20%. The Knockdown (Harlan-strain bed bugs; Day 30 @ 240 min) was 95%, the “% Morbidity” value (Harlan-strain bed bugs; 1 DAT) was 75% and the “% Mortality” value (Harlan-strain bed bugs; 1 DAT) was 23%. The “% Morbidity” value (Harlan-strain bed bugs; 2 DAT) was 33%, the “% Mortality” value (Harlan-strain bed bugs; 2 DAT) was 68% and the “% Morbidity” value (Harlan-strain bed bugs; 3 DAT) was 0%. The “% Mortality” value (Harlan-strain bed bugs; 3 DAT) was 100%, the Knockdown ([1]; Day 1 @ 10 minutes) was 0% and the Knockdown ([1]; Day 1 @ 240 minutes) was 50%. The Knockdown ([1]; Day 30 @ 10 minutes) was 3%, the Knockdown ([1]; Day 30 @ 240 min) was 28% and the “% Morbidity” value [1, 2] was 18%. For the same compound, the “% Mortality” value [1, 2] was 60%, the “% Mortality + Morbidity” value [1, 2] was 78% and the “% Morbidity” value [1, 3] was 18%. For the same compound, the “% Mortality” value [1, 3] was 60%, the “% Mortality + Morbidity” value [1, 3] was 78% and the “% Morbidity” value [1, 4] was 12.5%. For the same compound, the “% Mortality” value [1, 4] was 87.5%, the “% Mortality + Morbidity” value [1, 4] was 100% and the “% Morbidity” value [1, 5] was 33%. For the same compound, the “% Mortality” value [1, 5] was 10%, the “% Morbidity” value [1, 6] was 28% and the “% Mortality” value [1, 6] was 20%. For the same compound, the “% Morbidity” value [1, 7] was 18%, the “% Mortality” value [1, 7] was 43% and the “% Morbidity” value [1, 8] was 10%. For the same compound, the “% Mortality” value [1, 8] was 53%, the “% Morbidity” value [1, 9] was 8% and the “% Mortality” value [1, 9] was 63%. For the same compound, the “% Morbidity” value [1, 10] was 3%, the “% Mortality” value [1, 10] was 70% and the “% Morbidity” value [1, 11] was 5%. For the same compound, the “% Mortality” value [1, 11] was 70%.
